{"source": "PubChem BioAssay AID1845201", "about": "(Molecular Pharmacology Branch, DTP, NCI, 2023)", "tested_on": "COR L88 complex tumor spheroid viability", "experiment": "Anticancer human tumor COR L88 cell line growth inhibition;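 for all read-outs here: compound exposure lasted 7 days before viability readout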;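 for viability, T/C: percent of DMSO vehicle-treated spheroids = 100%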", "conditions": "for IC50: curve of first compound; for viability, T/C: stronger effect = lower value", "procedure,_shortened": "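Single agents and combinations were tested on spheroids built from tumor cells plus HUVEC and hMSC, at half-log dilutions starting at or near clinical Cmax, else 10 microM; final DMSO 0.25% (v/v).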", "data": [{"smiles": "Cn1ncnc1[C@H]1c2n[nH]c(=O)c3cc(F)cc(c23)N[C@@H]1c1ccc(F)cc1", "note": "+ CC[C@@]1(O)C(=O)OCc2c1cc1n(c2=O)Cc2cc3c(CN(C)C)c(O)ccc3nc2-1", "values": [{"measurement": "IC50", "setting": "second compound 0.003 µM", "value": 0.0909, "unit": "µM"}, {"measurement": "IC50", "setting": "second compound 0.00949 µM", "value": "< 0.00949", "unit": "µM"}, {"measurement": "IC50", "setting": "second compound 0.03 µM", "value": "< 0.00949", "unit": "µM"}, {"measurement": "IC50", "setting": "second compound 0.0949 µM", "value": "< 0.00949", "unit": "µM"}, {"measurement": "IC50", "setting": "second compound 0.3 µM", "value": "< 0.00949", "unit": "µM"}, {"measurement": "viability, T/C", "setting": "second compound 0.003 µM, first compound 0.00949 µM", "value": 65.9, "unit": "%"}, {"measurement": "viability, T/C", "setting": "second compound 0.003 µM, first compound 0.03 µM", "value": 61.9, "unit": "%"}, {"measurement": "viability, T/C", "setting": "second compound 0.003 µM, first compound 0.0949 µM", "value": 47.4, "unit": "%"}, {"measurement": "viability, T/C", "setting": "second compound 0.003 µM, first compound 0.3 µM", "value": 42.4, "unit": "%"}, {"measurement": "viability, T/C", "setting": "second compound 0.003 µM, first compound 0.949 µM", "value": 41.1, "unit": "%"}, {"measurement": "viability, T/C", "setting": "second compound 0.003 µM, first compound 3 µM", "value": 38.3, "unit": "%"}, {"measurement": "viability, T/C", "setting": "second compound 0.00949 µM, first compound 0.00949 µM", "value": 49.7, "unit": "%"}, {"measurement": "viability, T/C", "setting": "second compound 0.00949 µM, first compound 0.03 µM", "value": 44, "unit": "%"}, {"measurement": "viability, T/C", "setting": "second compound 0.00949 µM, first compound 0.0949 µM", "value": 44.1, "unit": "%"}, {"measurement": "viability, T/C", "setting": "second compound 0.00949 µM, first compound 0.3 µM", "value": 43.1, "unit": "%"}, {"measurement": "viability, T/C", "setting": "second compound 0.00949 µM, first compound 0.949 µM", "value": 40.2, "unit": "%"}, {"measurement": "viability, T/C", "setting": "second compound 0.00949 µM, first compound 3 µM", "value": 40.6, "unit": "%"}, {"measurement": "viability, T/C", "setting": "second compound 0.03 µM, first compound 0.00949 µM", "value": 48.2, "unit": "%"}, {"measurement": "viability, T/C", "setting": "second compound 0.03 µM, first compound 0.03 µM", "value": 49.5, "unit": "%"}, {"measurement": "viability, T/C", "setting": "second compound 0.03 µM, first compound 0.0949 µM", "value": 43.2, "unit": "%"}, {"measurement": "viability, T/C", "setting": "second compound 0.03 µM, first compound 0.3 µM", "value": 41.5, "unit": "%"}, {"measurement": "viability, T/C", "setting": "second compound 0.03 µM, first compound 0.949 µM", "value": 38.1, "unit": "%"}, {"measurement": "viability, T/C", "setting": "second compound 0.03 µM, first compound 3 µM", "value": 36.5, "unit": "%"}, {"measurement": "viability, T/C", "setting": "second compound 0.0949 µM, first compound 0.00949 µM", "value": 41.2, "unit": "%"}, {"measurement": "viability, T/C", "setting": "second compound 0.0949 µM, first compound 0.03 µM", "value": 38.4, "unit": "%"}, {"measurement": "viability, T/C", "setting": "second compound 0.0949 µM, first compound 0.0949 µM", "value": 37.3, "unit": "%"}, {"measurement": "viability, T/C", "setting": "second compound 0.0949 µM, first compound 0.3 µM", "value": 34.9, "unit": "%"}, {"measurement": "viability, T/C", "setting": "second compound 0.0949 µM, first compound 0.949 µM", "value": 31.6, "unit": "%"}, {"measurement": "viability, T/C", "setting": "second compound 0.0949 µM, first compound 3 µM", "value": 24.5, "unit": "%"}, {"measurement": "viability, T/C", "setting": "second compound 0.3 µM, first compound 0.00949 µM", "value": 36, "unit": "%"}, {"measurement": "viability, T/C", "setting": "second compound 0.3 µM, first compound 0.03 µM", "value": 32.6, "unit": "%"}, {"measurement": "viability, T/C", "setting": "second compound 0.3 µM, first compound 0.0949 µM", "value": 32.4, "unit": "%"}, {"measurement": "viability, T/C", "setting": "second compound 0.3 µM, first compound 0.3 µM", "value": 26.9, "unit": "%"}, {"measurement": "viability, T/C", "setting": "second compound 0.3 µM, first compound 0.949 µM", "value": 24.6, "unit": "%"}, {"measurement": "viability, T/C", "setting": "second compound 0.3 µM, first compound 3 µM", "value": 17.4, "unit": "%"}]}, {"smiles": "Cn1ncnc1[C@H]1c2n[nH]c(=O)c3cc(F)cc(c23)N[C@@H]1c1ccc(F)cc1", "note": "+ Cn1nnc2c(C(N)=O)ncn2c1=O", "values": [{"measurement": "IC50", "setting": "second compound 1 µM", "value": 0.205, "unit": "µM"}, {"measurement": "IC50", "setting": "second compound 3.16 µM", "value": 0.124, "unit": "µM"}, {"measurement": "IC50", "setting": "second compound 10 µM", "value": 0.0577, "unit": "µM"}, {"measurement": "IC50", "setting": "second compound 31.6 µM", "value": "< 0.00949", "unit": "µM"}, {"measurement": "IC50", "setting": "second compound 100 µM", "value": "< 0.00949", "unit": "µM"}, {"measurement": "viability, T/C", "setting": "second compound 1 µM, first compound 0.00949 µM", "value": 79.6, "unit": "%"}, {"measurement": "viability, T/C", "setting": "second compound 1 µM, first compound 0.03 µM", "value": 74, "unit": "%"}, {"measurement": "viability, T/C", "setting": "second compound 1 µM, first compound 0.0949 µM", "value": 58.4, "unit": "%"}, {"measurement": "viability, T/C", "setting": "second compound 1 µM, first compound 0.3 µM", "value": 45.8, "unit": "%"}, {"measurement": "viability, T/C", "setting": "second compound 1 µM, first compound 0.949 µM", "value": 39.8, "unit": "%"}, {"measurement": "viability, T/C", "setting": "second compound 1 µM, first compound 3 µM", "value": 36.3, "unit": "%"}, {"measurement": "viability, T/C", "setting": "second compound 3.16 µM, first compound 0.00949 µM", "value": 79.4, "unit": "%"}, {"measurement": "viability, T/C", "setting": "second compound 3.16 µM, first compound 0.03 µM", "value": 65.2, "unit": "%"}, {"measurement": "viability, T/C", "setting": "second compound 3.16 µM, first compound 0.0949 µM", "value": 51.1, "unit": "%"}, {"measurement": "viability, T/C", "setting": "second compound 3.16 µM, first compound 0.3 µM", "value": 45.3, "unit": "%"}, {"measurement": "viability, T/C", "setting": "second compound 3.16 µM, first compound 0.949 µM", "value": 38.5, "unit": "%"}, {"measurement": "viability, T/C", "setting": "second compound 3.16 µM, first compound 3 µM", "value": 39.1, "unit": "%"}, {"measurement": "viability, T/C", "setting": "second compound 10 µM, first compound 0.00949 µM", "value": 58.6, "unit": "%"}, {"measurement": "viability, T/C", "setting": "second compound 10 µM, first compound 0.03 µM", "value": 54.8, "unit": "%"}, {"measurement": "viability, T/C", "setting": "second compound 10 µM, first compound 0.0949 µM", "value": 45.9, "unit": "%"}, {"measurement": "viability, T/C", "setting": "second compound 10 µM, first compound 0.3 µM", "value": 43.1, "unit": "%"}, {"measurement": "viability, T/C", "setting": "second compound 10 µM, first compound 0.949 µM", "value": 40.8, "unit": "%"}, {"measurement": "viability, T/C", "setting": "second compound 10 µM, first compound 3 µM", "value": 36.3, "unit": "%"}, {"measurement": "viability, T/C", "setting": "second compound 31.6 µM, first compound 0.00949 µM", "value": 50.2, "unit": "%"}, {"measurement": "viability, T/C", "setting": "second compound 31.6 µM, first compound 0.03 µM", "value": 46.1, "unit": "%"}, {"measurement": "viability, T/C", "setting": "second compound 31.6 µM, first compound 0.0949 µM", "value": 44.2, "unit": "%"}, {"measurement": "viability, T/C", "setting": "second compound 31.6 µM, first compound 0.3 µM", "value": 39.4, "unit": "%"}, {"measurement": "viability, T/C", "setting": "second compound 31.6 µM, first compound 0.949 µM", "value": 38.9, "unit": "%"}, {"measurement": "viability, T/C", "setting": "second compound 31.6 µM, first compound 3 µM", "value": 30.1, "unit": "%"}, {"measurement": "viability, T/C", "setting": "second compound 100 µM, first compound 0.00949 µM", "value": 44.4, "unit": "%"}, {"measurement": "viability, T/C", "setting": "second compound 100 µM, first compound 0.03 µM", "value": 41.8, "unit": "%"}, {"measurement": "viability, T/C", "setting": "second compound 100 µM, first compound 0.0949 µM", "value": 35.1, "unit": "%"}, {"measurement": "viability, T/C", "setting": "second compound 100 µM, first compound 0.3 µM", "value": 35.1, "unit": "%"}, {"measurement": "viability, T/C", "setting": "second compound 100 µM, first compound 0.949 µM", "value": 32.6, "unit": "%"}, {"measurement": "viability, T/C", "setting": "second compound 100 µM, first compound 3 µM", "value": 33.3, "unit": "%"}]}]}
